The values that follow come from patent US20040110821A1, “GAL3 receptor antagonists for the treatment of affective disorders” (priority 2002, published 2004).

Experiment [1] addresses T1, human H1 histamine receptor (Homo sapiens, UniProt P35367).
T1 construct: expressed in transfected cells
Put plainly: Binding at histamine H1 receptor. Particulars: read-out: hH1 Ki. An excerpt: (§1) Other receptors: Cell membranes expressing human dopamine D1, D2, D4 and rat D3 receptors were purchased through BioSignal, Inc. (Montreal, Canada). Binding assays using the histamine H1 receptor; dopamine receptors; and α1A, α1B, and α2 adrenergic receptors may be carried out according to the procedures described in U.S. Pat. No. 5,780,485, the disclosure of which is hereby incorporated by reference in its entirety into this application. Binding assays using the dopamine D5 receptor may be carried out according to the procedures described in U.S. Pat. No. 5,882,855, the disclosure of which is hereby incorporated by reference in its entirety into this application. Binding assays for the human α1D adrenergic receptor may be carried out according to the procedures described in U.S. Pat. No. 6,156,518, the disclosure of which is hereby incorporated by reference in its entirety into this application.
(§2) Binding data were analyzed using nonlinear regression and statistical techniques available in the GraphPAD Prism package (San Diego, Calif.). Enzymatic assay data were derived from a standard curve of reference compound data.

Experiment [2] deals with T2, human dopamine D2 receptor (Homo sapiens, UniProt P14416).
T2 construct: purchased BioSignal, Inc. (Montreal, Canada)
In words: Binding at human dopamine D2 receptor. Particulars: read-out: hD2 Ki.
From the text: as §1, §2

Experiment [3] has as its target T3, human dopamine D1 receptor (Homo sapiens, UniProt P21728).
T3 construct: purchased BioSignal, Inc. (Montreal, Canada)
Put plainly: Binding at human dopamine D1 receptor. The following applies: read-out: hD1 Ki.
From the text: as §1, §2

The next experiment deals with T4, rat D3 receptor (Rattus norvegicus, UniProt P19020).
T4 construct: purchased BioSignal, Inc. (Montreal, Canada)
In words: Binding at rat dopamine D3 receptor. Particulars: read-out: rD3 Ki.
From the text: as §1, §2

Experiment [4] addresses T5, human α2B adrenergic receptor (Homo sapiens, UniProt P18089).
T5 construct: expressed in transfected cells
Put plainly: Binding at human α2B adrenergic receptor. The following applies: read-out: hα2B Ki.
From the text: as §1, §2

Experiment [5] deals with T6, Monoamine Oxidase B (central) (Rattus norvegicus, UniProt P19643).
T6 construct: Rat brain was used as the enzyme source; tissue NovaScreen (Hanover, Md.) performed the assay; host or cells: rat brain
Put plainly: Central Monoamine Oxidase B Enzyme Assay. Type of experiment: biochemical. The following applies: rat brain as enzyme source. As to the method: The methods to determine activity at monoamine oxidase enzymes (for example, central MAOA and MAOB) are described by Otsuka and Kobayashi, 1964, and were performed by NovaScreen (Hanover, Md.) with the following modifications.
Central Monoamine Oxidase B Enzyme Assay: Rat brain was used as the enzyme source. The assay was performed as described above for central MAOA, except the reference compound was RO 166491 and the subtype selective blocker was 100 nM clorgyline. Also, the substrate ([^14C]Phenylethylamine, 0.056 Ci/mmol) was added and incubated for 10 minutes.
as §2

Experiment [6] has as its target T7, human dopamine D4 receptor (Homo sapiens, UniProt P21917).
T7 construct: purchased BioSignal, Inc. (Montreal, Canada)
In words: Binding at human dopamine D4 receptor. Particulars: read-out: hD4 Ki.
From the text: as §1, §2

In a further experiment the target is T8, human GAL1 receptor (Homo sapiens, UniProt P47211).
T8 construct: expressed in transfected cells
T8 sequence (P47211 1-349): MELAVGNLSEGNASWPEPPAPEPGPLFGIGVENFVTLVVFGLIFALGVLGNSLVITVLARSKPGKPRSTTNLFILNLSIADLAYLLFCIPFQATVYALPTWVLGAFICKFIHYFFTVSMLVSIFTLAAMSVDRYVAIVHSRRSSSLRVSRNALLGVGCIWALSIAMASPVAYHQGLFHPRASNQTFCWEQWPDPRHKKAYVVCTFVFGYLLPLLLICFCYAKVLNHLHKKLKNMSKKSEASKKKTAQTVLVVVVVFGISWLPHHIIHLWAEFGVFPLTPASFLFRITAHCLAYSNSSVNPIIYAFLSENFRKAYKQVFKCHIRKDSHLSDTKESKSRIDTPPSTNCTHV
Put plainly: Radioligand binding at cloned human GAL1 receptor. The following applies: indolones, Table 4, read-out: Ki (nM) GalR 1. As to the method:
The present invention provides for a method of determining the binding affinity of a GAL3 antagonist, wherein the GAL3 antagonist is dissolved in a “suitable solvent”. A “suitable solvent” means one which permits the measurement of binding affinity of the GAL3 antagonist to the human GAL3 receptor at concentrations less than 1 μM, preferably less than 100 nM. Examples of solvents include, but are not limited to, DMSO, ethanol, N,N-dimethylacetamide, or water. For indolones, the preferred solvent is 3% DMSO (final concentration in the assay). For pyrimidines, the preferred solvent is 1% ethanol/0.09% polypuronic acid F-127 (final concentration in the assay). For any other type of compounds, the preferred solvent is the solvent which permits the measurement of binding affinity of a GAL3 antagonist at the lowest concentration. Once a suitable solvent is ascertained for the binding assay of the human GAL3 receptor, the same solvent is used in assays to determine the binding affinity for instance, at the GAL1 receptor.
The binding properties of the pyrimidines of the present invention were evaluated at the cloned human galanin receptors, GAL1, GAL2, and GAL3, using protocols described herein.
The binding properties of the indolones of the present invention were evaluated at the cloned human galanin receptors, GAL1, GAL2, and GAL3, using protocols described herein.
LM(tk-) cells were stably transfected with the human GAL1 or GAL3 receptor. CHO cells were stably transfected with the human GAL2 receptor.
cDNAs for the human and rat GAL1, and human and rat GAL3 receptors were transfected with a G-418 resistant gene into the mouse fibroblast LM(tk-) cell line by a calcium phosphate transfection method (Cullen, 1967). Stably transfected cells were selected with G-418. Human and rat GAL2 receptors were similarly transfected into CHO cells.
Membranes were harvested from stably transfected LM(tk-) cells. Adherent cells were washed twice in ice-cold phosphate buffered saline (138 mM NaCl, 8.1 mM Na2HPO4, 2.5 mM KCl, 1.2 mM KH2PO4, 0.9 mM CaCl2, 0.5 mM MgCl2, pH 7.4) and lysed by sonication in ice-cold sonication buffer (20 mM Tris-HCl, 5 mM EDTA, pH 7.7). Large particles and debris were cleared by low speed centrifugation (200×g, 5 min, 4° C.). Membranes were collected from the supernatant fraction by centrifugation (32,000×g, 18 min, 4° C.), washed with ice-cold hypotonic buffer, and collected again by centrifugation (32,000×g, 18 min, 4° C.). The final membrane pellet was resuspended by sonication into a small volume of ice-cold binding buffer (−1 ml for every 5 plates: 10 mM NaCl, 20 mM HEPES, 0.22 mM KH2PO4, 1.26 mM CaCl2, 0.81 mM MgSO4, pH 7.4). Protein concentration was measured by the Bradford method (Bradford, 1976) using Bio-Rad Reagent, with bovine serum albumin as a standard. Membranes were held on ice for up to one hour and used fresh, or flash frozen and stored in liquid nitrogen. Membranes were prepared similarly from CHO cells.
Galanin Receptors: Binding assays were performed according to the following published methods: human GAL3 (PCT International Publication No. WO 98/15570), human GAL1 (PCT International Publication No. WO 95/2260) human GAL2 (PCT International Publication No. WO 97/26853).
as §2

T2 sequence (P14416 whole entry): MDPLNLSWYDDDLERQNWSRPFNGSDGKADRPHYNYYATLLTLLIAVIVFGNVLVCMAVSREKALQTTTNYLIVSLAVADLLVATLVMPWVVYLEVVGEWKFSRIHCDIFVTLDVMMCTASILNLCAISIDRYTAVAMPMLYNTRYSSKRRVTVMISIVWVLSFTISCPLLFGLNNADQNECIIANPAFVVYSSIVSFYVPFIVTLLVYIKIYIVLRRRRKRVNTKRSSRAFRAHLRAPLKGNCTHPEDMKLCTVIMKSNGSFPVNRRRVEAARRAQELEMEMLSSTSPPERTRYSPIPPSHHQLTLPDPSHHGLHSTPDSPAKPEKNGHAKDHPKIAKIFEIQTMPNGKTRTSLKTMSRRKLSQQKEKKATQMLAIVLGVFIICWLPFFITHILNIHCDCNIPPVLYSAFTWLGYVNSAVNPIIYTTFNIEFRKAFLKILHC
T7 sequence (P21917 whole entry): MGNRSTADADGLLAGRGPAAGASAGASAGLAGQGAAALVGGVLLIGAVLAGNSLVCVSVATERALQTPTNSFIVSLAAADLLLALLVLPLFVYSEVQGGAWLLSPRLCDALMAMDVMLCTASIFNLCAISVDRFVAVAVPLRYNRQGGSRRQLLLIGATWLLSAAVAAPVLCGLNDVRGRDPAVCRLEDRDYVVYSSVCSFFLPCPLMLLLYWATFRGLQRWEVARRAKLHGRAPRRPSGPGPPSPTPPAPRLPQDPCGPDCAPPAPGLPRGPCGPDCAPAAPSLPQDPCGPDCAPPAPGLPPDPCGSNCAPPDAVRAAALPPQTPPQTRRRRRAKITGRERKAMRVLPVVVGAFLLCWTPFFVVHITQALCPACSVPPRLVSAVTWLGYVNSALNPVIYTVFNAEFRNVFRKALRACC
T4 sequence (P19020 whole entry): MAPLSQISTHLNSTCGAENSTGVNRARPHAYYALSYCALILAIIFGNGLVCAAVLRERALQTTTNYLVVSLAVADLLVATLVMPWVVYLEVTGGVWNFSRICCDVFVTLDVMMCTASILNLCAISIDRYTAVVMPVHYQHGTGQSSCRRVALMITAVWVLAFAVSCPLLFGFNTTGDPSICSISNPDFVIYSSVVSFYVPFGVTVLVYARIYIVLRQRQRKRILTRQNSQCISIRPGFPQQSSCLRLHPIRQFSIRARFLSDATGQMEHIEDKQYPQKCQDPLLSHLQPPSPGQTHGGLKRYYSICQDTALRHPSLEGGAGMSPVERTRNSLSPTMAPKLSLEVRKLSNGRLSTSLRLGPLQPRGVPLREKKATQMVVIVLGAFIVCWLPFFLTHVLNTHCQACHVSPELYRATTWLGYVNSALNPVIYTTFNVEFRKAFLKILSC
T6 sequence (P19643 whole entry): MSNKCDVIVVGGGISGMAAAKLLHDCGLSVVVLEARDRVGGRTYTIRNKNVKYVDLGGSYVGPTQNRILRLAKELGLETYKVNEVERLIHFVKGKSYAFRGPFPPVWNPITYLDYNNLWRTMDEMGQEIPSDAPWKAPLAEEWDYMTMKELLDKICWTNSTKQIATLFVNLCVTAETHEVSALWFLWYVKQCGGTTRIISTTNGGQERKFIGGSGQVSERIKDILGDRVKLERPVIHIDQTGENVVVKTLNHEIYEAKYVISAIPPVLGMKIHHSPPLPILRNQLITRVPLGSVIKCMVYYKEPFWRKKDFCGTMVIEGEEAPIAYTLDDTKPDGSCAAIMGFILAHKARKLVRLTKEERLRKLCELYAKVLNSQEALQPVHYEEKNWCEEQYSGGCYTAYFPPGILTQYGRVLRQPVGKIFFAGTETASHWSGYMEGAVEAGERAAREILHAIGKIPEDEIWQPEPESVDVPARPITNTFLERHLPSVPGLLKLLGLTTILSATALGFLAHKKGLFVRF
T1 sequence (P35367 whole entry): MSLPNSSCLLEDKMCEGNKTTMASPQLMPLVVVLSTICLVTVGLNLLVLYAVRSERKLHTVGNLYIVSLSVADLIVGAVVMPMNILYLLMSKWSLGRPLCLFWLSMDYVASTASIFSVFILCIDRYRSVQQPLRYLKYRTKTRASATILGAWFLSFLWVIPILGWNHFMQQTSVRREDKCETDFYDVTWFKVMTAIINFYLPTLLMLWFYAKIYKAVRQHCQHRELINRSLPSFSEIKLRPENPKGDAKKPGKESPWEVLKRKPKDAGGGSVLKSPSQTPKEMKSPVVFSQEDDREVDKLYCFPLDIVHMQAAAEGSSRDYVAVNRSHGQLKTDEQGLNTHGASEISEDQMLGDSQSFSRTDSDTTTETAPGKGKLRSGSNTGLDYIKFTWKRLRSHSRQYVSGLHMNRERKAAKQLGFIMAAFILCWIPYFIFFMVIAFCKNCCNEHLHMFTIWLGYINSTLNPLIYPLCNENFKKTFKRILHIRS
T5 sequence (P18089 whole entry): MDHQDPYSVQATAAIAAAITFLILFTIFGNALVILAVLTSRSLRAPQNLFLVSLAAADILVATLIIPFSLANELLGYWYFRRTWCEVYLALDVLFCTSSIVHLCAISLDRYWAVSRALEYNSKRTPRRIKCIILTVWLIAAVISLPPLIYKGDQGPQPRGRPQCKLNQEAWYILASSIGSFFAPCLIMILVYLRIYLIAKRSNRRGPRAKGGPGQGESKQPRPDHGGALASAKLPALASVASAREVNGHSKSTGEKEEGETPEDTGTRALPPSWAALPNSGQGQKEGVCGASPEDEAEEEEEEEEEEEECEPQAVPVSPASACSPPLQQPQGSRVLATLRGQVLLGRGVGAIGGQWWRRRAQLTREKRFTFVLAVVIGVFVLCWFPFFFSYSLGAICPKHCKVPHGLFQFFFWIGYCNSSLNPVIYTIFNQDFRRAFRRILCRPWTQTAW
T3 sequence (P21728 whole entry): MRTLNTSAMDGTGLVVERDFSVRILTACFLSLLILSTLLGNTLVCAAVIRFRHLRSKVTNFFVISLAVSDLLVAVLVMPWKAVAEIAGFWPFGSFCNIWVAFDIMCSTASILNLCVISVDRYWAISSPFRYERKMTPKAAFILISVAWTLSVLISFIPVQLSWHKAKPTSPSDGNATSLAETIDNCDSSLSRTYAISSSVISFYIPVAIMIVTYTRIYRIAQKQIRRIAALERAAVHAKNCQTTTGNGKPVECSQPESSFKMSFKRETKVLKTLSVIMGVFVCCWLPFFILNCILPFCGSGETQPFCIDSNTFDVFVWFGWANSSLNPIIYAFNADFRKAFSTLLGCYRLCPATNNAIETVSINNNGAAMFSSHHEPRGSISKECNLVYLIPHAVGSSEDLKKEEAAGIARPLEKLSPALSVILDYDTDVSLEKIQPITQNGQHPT

On to `O=C1C(=Nc2cccc(C(F)(F)F)c2)c2ccccc2N1c1ccccc1` [Example 92, 1-PHENYL-3-[[3-(TRIFLUOROMETHYL)PHENYL]IMINO]-1,3-DIHYDRO-2H-INDOL-2-ONE], for which the Ki in experiment [1] is 39.9 µM; in experiment [2], 41.4 µM; in experiment [3], over 50 µM; at rat D3 receptor it was 48.2 µM; in experiment [4], over 50 µM; in experiment [6] it was 41.4 µM. Also, the Ki at human GAL1 receptor is over 10000 nM. In experiment [5], the “% INHIBITION” value is 1%.
